The record followed here is paper PMC11425263, “Otilonium Bromide Exhibits Potent Antifungal Effects by Blocking Ergosterol Plasma Membrane Localization and Triggering Cytotoxic Autophagy in Candida Albicans” (Advanced Science, 2024).

The target of this test is T1, Sec31 (Candida albicans, UniProt Q5AAU3).
T1 construct: gene PGA63; full-length with N-terminal GFP tag, expressed in C. albicans, tested in whole cell lysate; COPII coat component
T1 sequence (Q5AAU3 1-1265): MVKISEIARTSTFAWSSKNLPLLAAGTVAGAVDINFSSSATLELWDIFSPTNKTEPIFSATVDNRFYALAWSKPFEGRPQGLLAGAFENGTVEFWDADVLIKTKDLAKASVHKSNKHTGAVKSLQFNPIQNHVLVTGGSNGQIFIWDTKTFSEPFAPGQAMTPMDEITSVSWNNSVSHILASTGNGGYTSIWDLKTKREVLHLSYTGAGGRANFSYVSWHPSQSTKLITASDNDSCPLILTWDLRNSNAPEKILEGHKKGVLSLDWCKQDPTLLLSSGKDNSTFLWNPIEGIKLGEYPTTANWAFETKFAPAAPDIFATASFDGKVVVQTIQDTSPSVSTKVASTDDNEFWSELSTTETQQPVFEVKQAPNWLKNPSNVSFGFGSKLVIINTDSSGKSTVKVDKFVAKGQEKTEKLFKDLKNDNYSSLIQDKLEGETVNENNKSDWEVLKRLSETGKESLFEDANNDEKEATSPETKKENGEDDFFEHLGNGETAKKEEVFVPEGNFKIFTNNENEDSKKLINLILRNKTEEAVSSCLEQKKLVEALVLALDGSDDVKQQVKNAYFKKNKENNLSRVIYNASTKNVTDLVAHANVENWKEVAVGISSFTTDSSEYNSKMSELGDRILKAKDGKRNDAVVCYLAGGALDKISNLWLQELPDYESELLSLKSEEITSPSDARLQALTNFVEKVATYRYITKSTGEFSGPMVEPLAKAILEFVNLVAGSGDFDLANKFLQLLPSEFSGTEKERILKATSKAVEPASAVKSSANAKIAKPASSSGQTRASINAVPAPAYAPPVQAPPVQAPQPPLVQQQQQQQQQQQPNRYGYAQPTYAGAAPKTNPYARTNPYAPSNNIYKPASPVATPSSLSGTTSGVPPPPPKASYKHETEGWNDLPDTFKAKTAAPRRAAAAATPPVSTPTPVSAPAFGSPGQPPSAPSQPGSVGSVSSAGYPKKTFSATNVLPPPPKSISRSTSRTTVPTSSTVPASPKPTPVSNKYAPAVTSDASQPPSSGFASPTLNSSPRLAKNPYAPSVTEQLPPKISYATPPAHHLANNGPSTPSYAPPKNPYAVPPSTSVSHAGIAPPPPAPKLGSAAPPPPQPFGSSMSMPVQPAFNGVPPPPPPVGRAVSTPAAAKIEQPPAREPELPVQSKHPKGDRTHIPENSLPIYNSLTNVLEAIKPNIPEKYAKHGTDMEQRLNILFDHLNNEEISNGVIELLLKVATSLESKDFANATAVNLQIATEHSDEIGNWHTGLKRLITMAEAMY
The test is described as follows: DARTS, thermolysin protection, anti-GFP western blot. Type of test: biochemical. As to conditions: GFP-Sec31 cell lysate; OTB 3.125 to 12.5 µg/mL, 1 h room temperature; thermolysin 15 min; beta-tubulin as control.

`CCCCCCCCOc1ccccc1C(=O)Nc1ccc(C(=O)OCC[N+](C)(CC)CC)cc1` [otilonium bromide]: the “DARTS, thermolysin protection, anti-GFP western blot” value is listed as “OTB effectively shielded Sec31 from degradation induced by thermolysin”.
